Data reported in article PMC4621896 (Oncotarget, 2015).
Like-named read-outs stand apart in the source and are kept apart here.

How the values were obtained:
[1] = molecular target: YopH protein tyrosine phosphatase from Yersinia pestis (Yersinia pestis, UniProt O68720); test: biochemical
[2] = molecular target: YopH from Yersinia enterocolitica (Yersinia enterocolitica, UniProt P15273); test: biochemical
[3] = molecular target: T1, Human recombinant CD45 (Homo sapiens, UniProt P08575); test: biochemical
T1 construct: purchased Sigma-Aldrich
T1 sequence (P08575 609-1306 limits assumed): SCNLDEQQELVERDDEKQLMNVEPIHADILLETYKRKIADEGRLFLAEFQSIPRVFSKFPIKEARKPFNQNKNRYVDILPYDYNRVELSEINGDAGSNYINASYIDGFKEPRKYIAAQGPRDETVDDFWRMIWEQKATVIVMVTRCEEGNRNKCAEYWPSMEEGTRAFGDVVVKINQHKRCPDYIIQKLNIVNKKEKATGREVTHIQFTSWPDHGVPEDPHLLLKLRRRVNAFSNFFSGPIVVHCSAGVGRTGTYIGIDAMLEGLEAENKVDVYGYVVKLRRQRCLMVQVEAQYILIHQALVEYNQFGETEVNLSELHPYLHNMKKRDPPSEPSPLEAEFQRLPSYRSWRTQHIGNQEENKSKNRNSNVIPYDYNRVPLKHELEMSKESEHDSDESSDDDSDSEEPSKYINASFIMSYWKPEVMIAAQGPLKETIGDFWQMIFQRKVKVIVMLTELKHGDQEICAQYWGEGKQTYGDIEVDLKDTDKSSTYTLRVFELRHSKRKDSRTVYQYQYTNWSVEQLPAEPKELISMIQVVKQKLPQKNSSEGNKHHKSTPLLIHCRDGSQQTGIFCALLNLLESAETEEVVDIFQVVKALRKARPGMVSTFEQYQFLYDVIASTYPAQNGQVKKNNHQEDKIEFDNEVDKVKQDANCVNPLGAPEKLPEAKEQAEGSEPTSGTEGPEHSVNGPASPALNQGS

[4] = molecular target: YopH Y. enterocolitica (Yersinia enterocolitica, UniProt P15273); assay type: biochemical
YopH Y. enterocolitica, sequence (P15273 whole entry, looked up): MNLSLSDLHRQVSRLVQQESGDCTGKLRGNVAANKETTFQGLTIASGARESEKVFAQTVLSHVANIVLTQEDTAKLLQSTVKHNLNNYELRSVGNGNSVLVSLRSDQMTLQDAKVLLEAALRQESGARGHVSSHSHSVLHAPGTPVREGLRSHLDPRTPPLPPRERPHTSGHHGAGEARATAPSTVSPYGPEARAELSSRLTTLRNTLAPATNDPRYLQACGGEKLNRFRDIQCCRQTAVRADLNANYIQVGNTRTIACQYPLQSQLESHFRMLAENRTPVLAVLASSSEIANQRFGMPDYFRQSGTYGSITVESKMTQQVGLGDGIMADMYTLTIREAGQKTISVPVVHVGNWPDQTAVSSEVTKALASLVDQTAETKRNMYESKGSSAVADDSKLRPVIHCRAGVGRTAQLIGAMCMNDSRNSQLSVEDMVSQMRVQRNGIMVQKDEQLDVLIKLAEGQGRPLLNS

[5] = molecular target: T2, YopH (Yersinia enterocolitica, UniProt P15273); assay type: biochemical
T2 sequence (P15273 whole entry, looked up): as above

[6] = molecular target: T2, YopH; assay type: biochemical; remark: listed apart in the source

YopH protein tyrosine phosphatase from Yersinia pestis, sequence (O68720 1-468): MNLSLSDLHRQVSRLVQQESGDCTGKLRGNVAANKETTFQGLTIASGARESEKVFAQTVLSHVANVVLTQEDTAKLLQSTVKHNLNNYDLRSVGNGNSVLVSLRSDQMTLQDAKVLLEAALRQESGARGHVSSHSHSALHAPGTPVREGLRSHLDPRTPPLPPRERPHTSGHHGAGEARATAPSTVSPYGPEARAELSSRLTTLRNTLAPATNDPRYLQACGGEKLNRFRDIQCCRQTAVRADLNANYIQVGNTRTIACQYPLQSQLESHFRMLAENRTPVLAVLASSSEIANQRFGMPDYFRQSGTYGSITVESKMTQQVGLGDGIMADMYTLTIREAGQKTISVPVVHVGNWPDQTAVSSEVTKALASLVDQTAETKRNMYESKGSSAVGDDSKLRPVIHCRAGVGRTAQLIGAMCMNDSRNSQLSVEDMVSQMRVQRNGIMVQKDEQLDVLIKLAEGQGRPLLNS
YopH from Yersinia enterocolitica, sequence (P15273 whole entry, looked up): as the sequence (P15273 whole entry, looked up) above

| Structure (SMILES) | IC50 [1] | IC50 [2] | Effect of catalase pretreatment on ATA induced CD45 inactivation [3] | IC50 [3] | Reversibility of ATA induced inhibition of YopH [4] | Effect of catalase on ATA induced decrease of thiol adducts [5] | Reduction of thiol-NBD adducts compared to control [5] | Effect of catalase pretreatment on ATA induced YopH inactivation [6] | IC50 ([1]; read-out: IC50 value, YopH Y.pestis inhibition) | IC50 ([2]; read-out: IC50 value, YopH Y.entorocolitica inhibition) | IC50 ([3]; read-out: IC50 value, CD45 inhibition) |
| --- | --- | --- | --- | --- | --- | --- | --- | --- | --- | --- | --- |
| O=C(O)C1=CC(=C(c2ccc(O)c(C(=O)O)c2)c2ccc(O)c(C(=O)O)c2)C=CC1=O [ATA, aurintricarboxylic acid] | 10 nM | 100 nM | almost completely protected | 200 nM | completely reversed | completely prevented | over 50% | almost completely protected | – | – | – |
| CCCCCCCC(=O)OO [peroctanoic acid] | – | – | – | – | – | – | – | – | 41 nM | 39 nM | 25 nM |
